In US20220031871A1, “ANTIBODIES FOR CHELATED RADIONUCLIDES AND CLEARING AGENTS” (Hoffmann-La Roche Inc., priority 2018, published 2022):
Marks after values point to notes of the source that are not given here.

How the values were obtained:
BxPC3 tumors = assay: Protocol 93a: efficacy and biodistribution of CEA-PRIT; format: in vivo, SCID mice
Procedure: The bispecific antibodies were compared side-by-side in single- and double-cycle treatment regimens.
Groups A-G represent the treated mice that were followed up for assessment of efficacy, whereas groups H-L comprise mice that were sacrificed for biodistribution purposes 24 h after their last ^212Pb-DOTAM injection.
Solid xenografts were established by subcutaneous injection of cells in RPMI (BxPC3) or DMEM (LS174T) media mixed 1:1 with Corning® Matrigel® basement membrane matrix (growth factor reduced; cat No. 354230).
For protocol 93a, mice (age 7 weeks) were injected s.c. into the right flank with 5×10^6 BxPC3 cells (passage 33) in 100 μl RPMI/Matrigel. Twelve days after tumor cell injection, mice were sorted into experimental groups with an average tumor volume of 235 mm^3.
To minimize re-ingestion of radioactive urine/feces after treatment cycle 1, cages were changed 4 hours after ^212Pb-DOTAM administration, and then again at 24 h p.i. For cycle 2, mice were placed in cages with grilled floors for 4 hours after ^212Pb-DOTAM administration, before being transferred to new cages with standard bedding. All cages were then changed at 24 h p.i., as after cycle 1. The tumor development in the mice was followed through repeated calipering three times a week. If needed, additional calipering was performed in the gaps between scheduled measurements. The body weight of the animals was measured repeatedly in the same fashion. Mice whose tumor volume reached 3000 mm^3 were immediately euthanized. Other factors taken into account for euthanasia for ethical reasons were body weight loss, tumor status (e.g. ulceration) and general appearance of the animal. Wet food was provided to all animals starting from five days after the radioactive injection if mandated by an acute loss of body weight (collective or individual) due to radiation-induced toxicity, until all individuals had recovered sufficiently.
The following organs and tissues were harvested from groups A-G at the time of euthanasia: bladder, ovaries, liver, spleen, kidneys, femur (including bone marrow), colon, jejunum, stomach, and tumor. Unexpected or abnormal conditions were noted and photographed. Tissues were immediately put in 10% neutral buffered formalin (4° C.) and then transferred to PBS (4° C.) after 5 days. The formalin-fixed samples were then shipped to Roche Pharma Research and Early Development, Roche Innovation Center Basel, for further processing and analysis.
Mice in groups H, J, and L were sacrificed and necropsied 24 hours after their first and only injection of ^212Pb-DOTAM; groups I and K were sacrificed and necropsied 24 hours after their second ^212Pb-DOTAM injection. The following organs and tissues were harvested: blood, bladder, small intestine, colon, spleen, pancreas, kidneys, liver, lung, heart, femoral bone, muscle, tail, and tumor. Collected samples were weighed and measured for radioactivity, and the percent injected dose per gram of tissue (% ID/g) subsequently calculated, including corrections for decay and background.

s.c. WSU-DLCL2 tumors = assay: Protocol 162: CD20-PRIT and 1-step RIT efficacy and biodistribution; format: in vivo, SCID mice; settings: multiple injections of 20 μCi (PRIT)
Procedure: The aim of this study was to show proof-of-concept of the treatment regimen developed for CEA-PRIT directed against an alternative target: cluster of differentiation 20 (CD20). The therapeutic efficacy was evaluated after 3 cycles of CD20-PRIT in mice bearing subcutaneous WSU-DLCL2 tumors. Comparisons were also made with: 1-step CD20-RIT, using BsAbs that were pre-incubated with ^212Pb-DOTAM before injection; with rituximab, a type I monoclonal antibody directed against CD20 and a reference in treatment of CD20+ diseases; and with GA101, a type II monoclonal antibody also directed against CD20.
Animals were treated according to the experimental schedule illustrated in FIG. 59. Solid WSU-DLCL2 xenografts were established in SCID mice aged 8 weeks on study day 0 by subcutaneous injection of 1.5×10^5 cells into the right flank. […]
Mice in groups H, I, and L were sacrificed and necropsied for biodistribution purposes 24 hours after their first and only injection of ^212Pb-DOTAM or ^212Pb-DOTAM-BsAb; groups J and K were sacrificed and necropsied 24 hours after their second and third ^212Pb-DOTAM injection, respectively. […] Collected samples were weighed and then measured for radioactivity using a 2470 WIZARD^2 automatic gamma counter (PerkinElmer), and the percent injected dose per gram of tissue (% ID/g) subsequently calculated, including corrections for decay and background. […]

[1] = labelled group 30 + 30 μCi 212Pb-DOTAM, multiple test level = 0.00238

NC(=O)CN1CCN(CC(N)=O)CCN(CC(N)=O)CCN(CC(N)=O)CC1.[212Pb+2] [^212Pb-DOTAM]
tumor growth inhibition (TGI) (BxPC3 tumors; day 47, 30+30 μCi, compared with PBS): 15.8% | Pairwise Log-Rank Test, survival, p vs PRIT-0175 30 + 30 μCi (BxPC3 tumors; [1]): 0.0032* | Pairwise Log-Rank Test, survival, p vs PRIT-0213 30 + 10 μCi (BxPC3 tumors; [1]): 0.0001* | Pairwise Log-Rank Test, survival, p vs PRIT-0213 30 + 30 μCi (BxPC3 tumors; [1]): 0.8474 | Pairwise Log-Rank Test, survival, p vs PRIT-0214 30 + 10 μCi (BxPC3 tumors; [1]): <.0001* | Pairwise Log-Rank Test, survival, p vs PRIT-0214 30 + 30 μCi (BxPC3 tumors; [1]): 0.0685 | Pairwise Log-Rank Test, survival, p vs Vehicle (PBS) (BxPC3 tumors; [1]): 0.5271 | Pairwise Wilcoxon Test, survival, p vs PRIT-0175 30 + 30 μCi (BxPC3 tumors; [1]): 0.0042* | Pairwise Wilcoxon Test, survival, p vs PRIT-0213 30 + 10 μCi (BxPC3 tumors; [1]): 0.0004* | Pairwise Wilcoxon Test, survival, p vs PRIT-0213 30 + 30 μCi (BxPC3 tumors; [1]): 0.8704 | Pairwise Wilcoxon Test, survival, p vs PRIT-0214 30 + 10 μCi (BxPC3 tumors; [1]): 0.0002* | Pairwise Wilcoxon Test, survival, p vs PRIT-0214 30 + 30 μCi (BxPC3 tumors; [1]): 0.0827 | Pairwise Wilcoxon Test, survival, p vs Vehicle (PBS) (BxPC3 tumors; [1]): 0.1439 | tolerability (BW development) (s.c. WSU-DLCL2 tumors): well tolerated
